Molecules are shown by their SMILES. Bounds are passed on as bounds.

From patent US10689354B2, “Aminoazole derivative” (Teijin Pharma Limited, priority 2015, dated 2020) come the findings set out here.

For experiment [1], the target named is T1, androgen receptor (AR-LBD) (Rattus norvegicus, UniProt P15207).
T1 construct: 5 μL of 2×AR-LBD/Fluoromone AL Red Complex contained in the kit; purchased Invitrogen
T1 sequence (P15207 651-882 limits assumed): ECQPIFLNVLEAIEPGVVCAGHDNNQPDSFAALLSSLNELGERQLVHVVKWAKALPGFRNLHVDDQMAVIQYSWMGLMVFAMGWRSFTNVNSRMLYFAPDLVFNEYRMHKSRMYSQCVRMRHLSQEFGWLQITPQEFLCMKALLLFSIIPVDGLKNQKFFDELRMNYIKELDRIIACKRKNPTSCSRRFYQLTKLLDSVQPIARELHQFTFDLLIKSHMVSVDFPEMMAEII
In words: Evaluation of androgen receptor affinity (PolarScreen Androgen Receptor Competitor Assay Kit, Red; fluorescence polarization). Particulars: 22° C. for 5 hours, relative to binding rate of 1 μM DHT, read-out: AR affinity (pEC50) (converted). In a few lines:
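Test compound and the 2× AR-LBD/Fluoromone AL Red complex were combined in duplicate wells. After reacting 5 h at 22° C, polarization was measured. pEC50 was derived by 4-parameter fitting, normalizing to binding obtained with 1 μM dihydrotestosterone.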
Background: Fluorescence polarisation rises when a labelled molecule tumbles more slowly, as on binding a larger partner.

A further experiment deals with T2, human androgen receptor (Homo sapiens, UniProt P10275).
T2 construct: expressed in transfected cells; host or cells: HEK293
T2 sequence (P10275 1-920): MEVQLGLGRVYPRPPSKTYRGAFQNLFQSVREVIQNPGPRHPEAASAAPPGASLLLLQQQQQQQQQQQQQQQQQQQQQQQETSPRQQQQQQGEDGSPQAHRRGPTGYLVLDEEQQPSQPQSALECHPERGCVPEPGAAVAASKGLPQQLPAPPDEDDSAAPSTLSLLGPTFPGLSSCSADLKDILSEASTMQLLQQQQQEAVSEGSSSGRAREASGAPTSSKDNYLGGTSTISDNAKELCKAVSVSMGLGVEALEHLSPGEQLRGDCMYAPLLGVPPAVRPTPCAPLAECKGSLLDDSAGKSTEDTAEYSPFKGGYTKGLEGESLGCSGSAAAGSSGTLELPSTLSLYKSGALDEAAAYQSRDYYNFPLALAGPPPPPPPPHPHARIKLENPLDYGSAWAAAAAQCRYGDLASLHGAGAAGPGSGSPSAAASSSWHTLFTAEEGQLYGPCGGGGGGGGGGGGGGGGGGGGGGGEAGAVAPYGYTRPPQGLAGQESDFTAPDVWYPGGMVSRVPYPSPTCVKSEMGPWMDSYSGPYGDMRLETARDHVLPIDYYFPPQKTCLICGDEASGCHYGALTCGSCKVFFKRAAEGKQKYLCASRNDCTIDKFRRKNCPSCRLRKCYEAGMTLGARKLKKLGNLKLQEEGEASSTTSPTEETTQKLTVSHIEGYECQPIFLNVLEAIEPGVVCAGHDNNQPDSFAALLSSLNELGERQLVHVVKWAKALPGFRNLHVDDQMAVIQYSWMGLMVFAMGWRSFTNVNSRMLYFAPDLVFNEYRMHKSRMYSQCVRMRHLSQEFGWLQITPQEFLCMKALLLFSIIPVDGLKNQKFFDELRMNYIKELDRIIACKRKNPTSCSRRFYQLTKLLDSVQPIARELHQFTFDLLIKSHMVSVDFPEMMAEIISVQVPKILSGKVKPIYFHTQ
Description: Reporter assay of an androgen receptor responsive sequence (luciferase, transiently transfected HEK293 cells). In kind it is cell-based. Particulars: 24 hours incubation, relative to activity of 100 nM DHT, read-out: AR transcriptive activity (pEC50) (converted). The method, boiled down: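 Agonism scored as pEC50, fitted by 4-parameter curve against the response to 100 nM DHT, from dual-luciferase readout after 24 h compound treatment. Cells were HEK293 co-transfected (3 h) with human AR expression vector, androgen-responsive firefly reporter and Renilla control, in charcoal-stripped serum.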

As for `COc1ccccc1CN(c1ccc(C#N)cc1)c1nc(C(=O)NS(C)(=O)=O)c(C)s1` [Compound 455, 2-[4-cyano-N-[(2-methoxyphenyl)methyl]anilino]-5-methyl-N-methylsulfonyl-thiazole-4-carboxamide], the results for the EC50 (in experiment [1]; on human androgen receptor) were 100 nM and 501 nM, respectively.

On to `Cc1oc(N(CCc2ccc(C#N)cc2)Cc2ccc(C(F)(F)F)nc2)nc1C(=O)NS(C)(=O)=O` [Compound 555, 2-[2-(4-cyanophenyl)ethyl-[[6-(trifluoromethyl)-3-pyridyl]methyl]amino]-5-methyl-N-methylsulfonyl-oxazole-4-carboxamide], for which the values for the EC50 (in experiment [1]; on human androgen receptor) were 316 nM and 5010 nM, respectively.

Regarding `Cc1sc(N(CC2CCCC2)c2ccc(C#N)cc2)nc1C(=O)NS(C)(=O)=O` [Compound 19, 2-[4-cyano-N-(cyclopentylmethyl)anilino]-5-methyl-N-methylsulfonyl-thiazole-4-carboxamide], the results for the EC50 (in experiment [1]; at human androgen receptor) were 158 nM and greater than 10000 nM, respectively.

For `Cc1sc(N(Cc2ccccc2)c2ccc(C#N)c(F)c2)nc1C(=O)NS(C)(=O)=O` [Example 222, 2-(N-benzyl-4-cyano-3-fluoro-anilino)-5-methyl-N-methylsulfonyl-thiazole-4-carboxamide], the EC50 is 200 nM in experiment [1] and 251 nM on human androgen receptor.

In the case of `Cc1sc(N(Cc2ccc(OC(F)(F)F)cc2)c2ccc(C#N)cc2)nc1C(=O)NS(=O)(=O)CCCC#N` [Example 199, N-(3-cyanopropylsulfonyl)-2-[4-cyano-N-[[4-(trifluoromethoxy)phenyl]methyl]anilino]-5-methyl-thiazole-4-carboxamide], the results for the EC50 (in experiment [1]; on human androgen receptor) were 39.8 nM and 1000 nM, respectively.

For the molecule `COCCCS(=O)(=O)NC(=O)c1nc(N(Cc2ncc(Br)cc2F)c2ccc(C#N)cc2)sc1C` [Compound 535, 2-[N-[(5-bromo-3-fluoro-2-pyridyl)methyl]-4-cyano-anilino]-N-(3-methoxypropylsulfonyl)-5-methyl-thiazole-4-carboxamide], the EC50 in experiment [1] is 126 nM; on human androgen receptor it was 316 nM.

Regarding `Cc1sc(N(Cc2ccc(OC(F)F)cc2F)c2ccc(C#N)cc2)nc1C(=O)NS(C)(=O)=O` [Compound 522, 2-[4-cyano-N-[[4-(difluoromethoxy)-2-fluoro-phenyl]methyl]anilino]-5-methyl-N-methylsulfonyl-thiazole-4-carboxamide], the EC50 in experiment [1] was 25.1 nM; on human androgen receptor it was 251 nM.

Turning to `Cc1sc(N(CCc2ccc(OC(F)(F)F)cc2)Cc2ccccc2)nc1C(=O)NS(C)(=O)=O` [Compound 684, 2-[benzyl-[2-[4-(trifluoromethoxy)phenyl]ethyl]amino]-5-methyl-N-methylsulfonyl-thiazole-4-carboxamide], the EC50 in experiment [1] is 39.8 nM; on human androgen receptor, 251 nM.

In the case of `CSc1cccc(CN(c2ccc(C#N)cc2)c2nc(C(=O)NS(C)(=O)=O)c(C)s2)c1` [Compound 431, 2-[4-cyano-N-[(3-methylsulfanylphenyl)methyl]anilino]-5-methyl-N-methylsulfonyl-thiazole-4-carboxamide], the figures for the EC50 (in experiment [1]; at human androgen receptor) were 20 nM and 316 nM, respectively.

Turning to `Cc1nc(CN(CCc2ccc(Cl)cc2)c2nc(C(=O)NS(C)(=O)=O)c(C)o2)cs1` [Compound 546, 2-[2-(4-chlorophenyl)ethyl-[(2-methylthiazol-4-yl)methyl]amino]-5-methyl-N-methylsulfonyl-oxazole-4-carboxamide], the results for the EC50 (in experiment [1]; at human androgen receptor) were 200 nM and 1580 nM, respectively.

Consider `CS(=O)(=O)NC(=O)c1nc(N(Cc2ccccc2Cl)c2ccc(C#N)cc2)sc1Cl` [Example 263, 5-chloro-2-[N-[(2-chlorophenyl)methyl]-4-cyano-anilino]-N-methylsulfonyl-thiazole-4-carboxamide], for which the figures for the EC50 (in experiment [1]; at human androgen receptor) were 63.1 nM and 316 nM, respectively.

Regarding `Cc1sc(N(Cc2cc(F)cc3cccnc23)c2ccc(C#N)cc2)nc1C(=O)NS(C)(=O)=O` [Example 174, 2-[4-cyano-N-[(6-fluoro-8-quinolyl)methyl]anilino]-5-methyl-N-methylsulfonyl-thiazole-4-carboxamide], the EC50 in experiment [1] is 100 nM; at human androgen receptor it was 316 nM.
